Laboratory results as given in patent US7534809B2, “Phospho-indoles as HIV inhibitors” (priority 2004, dated 2009).
Where two headings read alike, the source gives them in different places.

Legend:
HIV BH-10 WT = assay: Cell-based assay using BH-10 cells, wild type
[1] = test system: HIV mutant strain K103N/Y181C; assay: Cell-based assay using BH-10 cells, K103N/Y181C mutant
Procedure: (§1) In a typical embodiment, the NNRTIs display an EC50 in a mutant HIV strain of less than approximately 5, 2.5, 1 or 0.1 μM concentration. The degree of cross-resistance against a drug resistant strain of HIV is measured by assessing the EC50 of the desired oxo-pyrimidine compound in the target mutated, i.e., drug resistant, virus.
(§2) The degree of cross-resistance against a drug resistant strain of HIV can easily be measured by assessing the EC50 of the desired indole in the target mutated i.e., drug resistant, virus.

HIV mutant strain Y181C = assay: Cell-based assay using BH-10 cells, Y181C mutant
Procedure: as §1, §2

[2] = Human immunodeficiency virus 1, read-out: EC50 WT///B, BH-10 cells, wild type
[3] = Human immunodeficiency virus 1, read-out: EC50 K103N/Y181C, BH-10 cells, K103N/Y181C mutant
[4] = Human immunodeficiency virus 1, read-out: EC50 Y181C, BH-10 cells, Y181C mutant
[5] = BH-10 cells, wild type, read-out: EC50 WT///B
[6] = BH-10 cells, K103N/Y181C mutant, read-out: EC50 K103N/Y181C
[7] = read-out: EC50 K103N/Y181C, BH-10 cells, K103N/Y181C mutant
[8] = BH-10 cells, Y181C mutant, read-out: EC50 Y181C

Structure (SMILES)	EC50 (HIV BH-10 WT; [2])	EC50 [1, 3]	EC50 (HIV mutant strain Y181C; [4])	EC50 (HIV BH-10 WT; [5])	EC50 [1, 6]	EC50 [1, 7]	EC50 (HIV BH-10 WT; read-out: EC50 WT///B, BH-10 cells, wild type)	EC50 (HIV mutant strain Y181C; [8])
COP(=O)(c1cc(C)cc(C)c1)c1c(C(=O)NCc2cc[n+]([O-])cc2)[nH]c2ccc(Cl)c(F)c12 (centres unmarked) [Compound 22m]	2.1 nM	1.9 nM	2.6 nM					
COP(=O)(c1cc(C)cc(F)c1)c1c(C(=O)NCc2ccncc2)[nH]c2ccc(Cl)cc12 (centres unmarked) [Compound 18d]	2.3 nM	3.7 nM	9.4 nM					
COP(=O)(c1cc(C)cc(C)c1)c1c(C(=O)NCc2ccncc2F)[nH]c2ccc(Cl)cc12 (centres unmarked) [Compound 18h]	1.7 nM	4.3 nM	14.3 nM					
COP(=O)(c1cc(C)cc(C)c1)c1c(C(=O)NCc2ccc[n+]([O-])c2)[nH]c2ccc(Cl)cc12 (centres unmarked) [Compound 22b]	3.5 nM	3.2 nM	18.7 nM					
COP(=O)(c1cccc(C)c1)c1c(C(=O)NCc2ccncc2)[nH]c2ccc(Cl)cc12 (centres unmarked) [Compound 18a]	1 nM	3.1 nM	10.1 nM					
COP(=O)(c1cc(F)cc(F)c1)c1c(C(=O)NCC#N)[nH]c2ccc(Cl)cc12 (centres unmarked) [Compound 59a]	1.4 nM	8.4 nM	47.3 nM					
COP(=O)(c1cc(F)cc(F)c1)c1c(C(=O)NCc2cc[n+]([O-])cc2)[nH]c2ccc(Cl)cc12 (centres unmarked) [Compound 22a]	3.1 nM	11.3 nM	52.4 nM					
CCOP(=O)(c1ccccc1C)c1c(C(N)=O)[nH]c2ccc(Cl)cc12 (centres unmarked) [Compound 6x]				21.3 nM	448 nM			
COP(=O)(c1cc(C)cc(C)c1)c1c(C(=O)NCc2ccc(F)cc2F)[nH]c2ccc(Cl)cc12 (centres unmarked) [Compound 18aaj]		41.6 nM				25.8 nM		
CCc1cccc(P(=O)(OC)c2c(C(=O)NCc3ccncc3)[nH]c3ccc(Cl)cc23)c1 (centres unmarked) [Compound 18ap]	5.8 nM	5.8 nM	3.7 nM					
COc1cccc(P(=O)(OC)c2c(C(=O)NCc3ccncc3)[nH]c3ccc(Cl)cc23)c1 (centres unmarked) [Compound 18av]	0.7 nM	2.4 nM				1.4 nM	0.8 nM	
CCOP(=O)(c1cccc(CC)c1)c1c(C(N)=O)[nH]c2ccc(Cl)cc12 (centres unmarked) [Compound 6e]	2 nM	1.2 nM	34.1 nM					
COP(=O)(c1cc(F)cc(C#N)c1)c1c(C(N)=O)[nH]c2ccc(Cl)cc12 (centres unmarked) [Compound 7at]				5.7 nM	10.3 nM			22.1 nM
COP(=O)(CC=C(C)C)c1c(C(N)=O)[nH]c2ccc(Cl)cc12 (centres unmarked) [Compound 57b]	0.8 nM	174 nM	13.1 nM					
COP(=O)(c1cc(C)cc(C)c1)c1c(C(=O)NCc2cc(F)ccc2F)[nH]c2ccc(Cl)cc12 (centres unmarked) [Compound 18aai]				3.6 nM	18.3 nM			15.6 nM
COP(=O)(c1cc(C)cc(C)c1)c1c(C(=O)NCCc2ccncc2)[nH]c2ccc(Cl)cc12 (centres unmarked) [Compound 18g]	11.6 nM	9.8 nM	30.6 nM					
COP(=O)(c1cc(C)cc(C)c1)c1c(C(=O)NCc2cc[n+](C)cc2)[nH]c2ccc(Cl)cc12 (centres unmarked) [Compound 22l]	6.1 nM	77.4 nM	269 nM					
COP(=O)(c1cccc(COCc2ccccc2)c1)c1c(C(N)=O)[nH]c2ccc(Cl)cc12 (centres unmarked) [Compound 7ap]	153 nM	> 1250 nM	1140 nM					
COP(=O)(c1cccc(C)c1)c1c(C(=O)NCc2ccco2)[nH]c2ccc(Cl)cc12 (centres unmarked) [Compound 18b]	3.6 nM	4 nM	10.1 nM					
COP(=O)(c1cccc2ccccc12)c1c(C(N)=O)[nH]c2ccc(Cl)cc12 (centres unmarked) [Compound 7t]	0.6 nM	2.6 nM	5.7 nM					
COP(=O)(c1cc(C)cc(C)c1)c1c(C(=O)NCc2ccccc2N)[nH]c2ccc(Cl)cc12 (centres unmarked) [Compound 18n]	19.5 nM	23.1 nM	87.8 nM					
CCc1cc(C)cc(P(=O)(OC)c2c(C(N)=O)[nH]c3ccc(Cl)cc23)c1 (centres unmarked) [Compound 7w]	0.4 nM	1.2 nM	5.5 nM					
COc1cccc(P(=O)(OC)c2c(C(=O)NCc3ccco3)[nH]c3ccc(Cl)cc23)c1 (centres unmarked) [Compound 18au]	0.8 nM	6 nM	3.3 nM					
CCOP(=O)(c1ccc(C)cc1)c1c(C(N)=O)[nH]c2ccc(Cl)cc12 (centres unmarked) [Compound 6w]	7.2 nM	> 1250 nM						
COP(=O)(c1cc(F)cc(Cl)c1)c1c(C(N)=O)[nH]c2ccc(Cl)cc12 (centres unmarked) [Compound 7v]	0.8 nM	2.3 nM	14.9 nM					
C=Cc1cccc(P(=O)(OC)c2c(C(N)=O)[nH]c3ccc(Cl)cc23)c1 (centres unmarked) [Compound 18aaq]	7.2 nM	27.6 nM	18.4 nM					

Structure (SMILES)	EC50 (HIV BH-10 WT; [2])	EC50 [1, 3]	EC50 (HIV mutant strain Y181C; [4])	EC50 (HIV BH-10 WT; [5])	EC50 [1, 6]	EC50 [1, 7]	EC50 (HIV BH-10 WT; read-out: EC50 WT///B, BH-10 cells, wild type)	EC50 (HIV mutant strain Y181C; [8])
COP(=O)(c1cc(C)cc(C#N)c1)c1c(C(N)=O)[nH]c2ccc(Cl)cc12 (centres unmarked) [Compound 7as]	1.4 nM	2.9 nM	4.8 nM					
COP(=O)(c1cc(C)cc(C)c1)c1c(C(=O)NCc2cc[n+]([O-])cc2F)[nH]c2ccc(Cl)cc12 (centres unmarked) [Compound 22d]	2.9 nM	6.7 nM	1.5 nM					
COP(=O)(c1cc(C)cc(C)c1)c1c(C(=O)NCc2ccncc2)[nH]c2ccc(Cl)c(F)c12 (centres unmarked) [Compound 18r]	3.8 nM	3.6 nM	16.5 nM					
CCOP(=O)(c1cccc(Cl)c1)c1c(C(N)=O)[nH]c2ccc(Cl)cc12 (centres unmarked) [Compound 6d]	1.4 nM	15.8 nM	16.6 nM					
CCOP(=O)(c1ccc(C)c(C)c1)c1c(C(N)=O)[nH]c2ccc(Cl)cc12 (centres unmarked) [Compound 6y]				2.6 nM	> 1250 nM			
COP(=O)(c1cccc(C)c1)c1c(C(N)=O)[nH]c2ccc(Cl)cc12 (centres unmarked) [Compound 7ac]				1.3 nM	5.5 nM			9.6 nM
COP(=O)(c1ccccc1)c1c(C(=O)NCN2CCOCC2)[nH]c2ccc(Cl)cc12 (centres unmarked) [Compound 18aac]	0.5 nM	14 nM	10.1 nM					
COP(=O)(c1cccs1)c1c(C(N)=O)[nH]c2ccc(Cl)cc12 (centres unmarked) [Compound 52b]	0.5 nM	2.5 nM	8.7 nM					
COP(=O)(c1cc(C)cc(C)c1)c1c(C(=O)NCc2cccnc2)[nH]c2ccc(Cl)cc12 (centres unmarked) [Compound 18f]	2.3 nM	3.4 nM	5.9 nM					
COP(=O)(c1ccccc1)c1c(C(N)=O)[nH]c2ncc(Cl)cc12 (centres unmarked) [Compound 7-Aza]				14.7 nM	193 nM			> 1250 nM
COP(=O)(c1cc(F)cc(F)c1)c1c(C(N)=O)[nH]c2ccc(Cl)cc12 (centres unmarked) [Compound 7aj]	0.6 nM	9.1 nM	17.7 nM					
COP(=O)(c1ccccc1)c1c(C(=O)NCc2ccco2)[nH]c2ccc(Cl)cc12 (centres unmarked) [Compound 18at]	1.8 nM	0.5 nM	1.5 nM					
COP(=O)(c1cc(C)cc(C)c1)c1c(C(=O)NCCc2cc[n+]([O-])cc2)[nH]c2ccc(Cl)cc12 (centres unmarked) [Compound 22c]	2.8 nM	26.8 nM	10.1 nM					
COP(=O)(c1cc(C)cc(C)c1)c1c(C(=O)NCc2c(F)ccc(F)c2F)[nH]c2ccc(Cl)cc12 (centres unmarked) [CONHCH2(Ph: 2,3,6-tri-F)]				17.9 nM	22.8 nM			17.1 nM
COP(=O)(c1ccccc1F)c1c(C(N)=O)[nH]c2ccc(Cl)cc12 (centres unmarked) [Compound 7al]				0.5 nM	2.6 nM			13.9 nM
COP(=O)(c1ccccc1Cl)c1c(C(N)=O)[nH]c2ccc(Cl)cc12 (centres unmarked) [Compound 7ao]	0.4 nM	1.4 nM	2 nM					
COP(=O)(c1cc(C)cc(C)c1)c1c(C(=O)NCc2cnccn2)[nH]c2ccc(Cl)cc12 (centres unmarked) [Compound 18i]	3 nM	1.8 nM	16.8 nM					
COP(=O)(c1cc(C)cc(C)c1)c1c(C(=O)NCc2ccccc2C(F)(F)F)[nH]c2ccc(Cl)cc12 (centres unmarked) [Compound 18aal]	30.1 nM	21.8 nM	19.7 nM					
COP(=O)(c1cc(C)cc(C)c1)c1c(C(=O)NCc2ccncc2)[nH]c2ccc(Cl)cc12 (centres unmarked) [Compound 18ax]	3 nM	2.3 nM	7.2 nM					
COP(=O)(c1cc(C)cc(C)c1)c1c(C(N)=O)[nH]c2ccc(Cl)cc12 (centres unmarked) [Compound 7a]	0.2 nM	1 nM	1.2 nM					
COP(=O)(c1ccccc1C)c1c(C(N)=O)[nH]c2ccc(Cl)cc12 (centres unmarked) [Compound 7ad]				1.3 nM	4.7 nM			32 nM
COP(=O)(c1cccc(C(F)(F)F)c1)c1c(C(N)=O)[nH]c2ccc(Cl)cc12 (centres unmarked) [Compound 7e]	0.9 nM	1.2 nM	3.2 nM					
CCOP(=O)(c1cccc(C(F)(F)F)c1)c1c(C(N)=O)[nH]c2ccc(Cl)cc12 (centres unmarked) [Compound 6f]	6.7 nM	498 nM						
CCOP(=O)(c1cccc(C#N)c1)c1c(C(N)=O)[nH]c2ccc(Cl)cc12 (centres unmarked) [Compound 6g]	9.5 nM	195 nM						
COP(=O)(c1c(C(N)=O)[nH]c2ccc(Cl)cc12)C1CCCCC1 (centres unmarked) [Compound 57a]	1.7 nM	162 nM						
CCOP(=O)(c1cccc(OC)c1)c1c(C(N)=O)[nH]c2ccc(Cl)cc12 (centres unmarked) [Compound 6m]	2.3 nM	66.4 nM						
